In patent US20100273822A1, “Immediate release compositions and methods for delivering drug formulations using strong acid ion exchange resins” (priority 2009, published 2010):

Test: Dissolution test USP 31 NF 26 section 711, apparatus 1 baskets at 100 rpm
Assay type: physicochemical
Procedure: The release enhancing agent, CaCl2, was added to the capsule blend of the first sample while a second formulation was prepared as a control without the use of the release enhancing agent. Six capsules from each formulation were then tested for dissolution.
The test used followed USP 31 NF 26 section 711 using apparatus 1 baskets at 100 rpm (no enzymes). The media selected was simulated gastric (0.1N HCl) at a volume of 900 ml. One capsule was added to each dissolution vessel. At the 60 minute time point the baskets were removed without touching the contents and subsequently placed in dissolution vessels containing 900 ml of simulated intestinal fluid (pH of 6.8). Aliquots were drawn at 15, 30, 45, and 120 minutes. An equivalent amount of media was replaced in the dissolution vessel to account for the volume of the sample removed. The aliquots were filtered and subsequently analyzed using HPLC equipped with a UV detector.
The process that was used to create the resinate, filling the capsules and carrying out the dissolution test in this example was the same as described in Example 1 except that 60 mg of CaCl2 was used instead of 40 mg as in Example 1.

## [Ca+2].[Cl-].[Cl-] [CaCl2]
Example 1, 40 mg CaCl2 in capsule with dextromethorphan IRP69 resinate
  effect of adding the release enhancing agent on release rate of dextromethorphan vs control formulation: increased the release rate of dextromethorphan
Example 2, 60 mg CaCl2 in capsule with dextromethorphan IRP69 resinate
  effect of adding the release enhancing agent on release rate of dextromethorphan vs control formulation: increased the release rate of dextromethorphan
